We go through five molecules from ChEMBL document CHEMBL1158091, “Amphimedosides, 3-alkylpyridine glycosides from a marine sponge Amphimedon sp” (J Nat Prod, 2006).

The structures appear in SMILES notation. Converted amounts (≈) assume the structure as drawn.

This test has as its system P388. Briefly: Cytotoxicity against mouse P388 cells by MTT assay. The format is functional, cell-based.
On to `CON(CCCCCCCCCCC#CCCCCc1cccnc1)[C@@H]1O[C@H](CO)[C@@H](O)[C@H](O)[C@H]1O` [AMPHIMEDOSIDE A], for which 11 µg/mL (≈ 21.7 µM) corresponded to half-maximal inhibition (IC50).
The result for `CON(CCCCCCCCC#CCCCCc1cccnc1)[C@@H]1O[C@H](CO)[C@@H](O)[C@H](O)[C@H]1O` [AMPHIMEDOSIDE B] reads 11 µg/mL (≈ 23 µM); that for `CON(CCCCCCCCCCC#CCCc1cccnc1)[C@@H]1O[C@H](CO)[C@@H](O)[C@H](O)[C@H]1O` [AMPHIMEDOSIDE C], 5 µg/mL (≈ 10.4 µM); that for `CON(CC(C)CCCCCCCCCCc1cccnc1)[C@@H]1O[C@H](CO)[C@@H](O)[C@H](O)[C@H]1O` (stereo not given in full) [AMPHIMEDOSIDE D], 0.45 µg/mL (≈ 0.96 µM).
The result for `CON(CCCC/C=C\CCCCCCCCc1cccnc1)[C@@H]1O[C@H](CO)[C@@H](O)[C@H](O)[C@H]1O` [AMPHIMEDOSIDE E] reads 2.2 µg/mL (≈ 4.58 µM).
